Patent US7781580B2, “Stilbene derivatives as new cancer therapeutic agents” (Virginia Commonwealth University, priority 2007, dated 2010)

Columns and labels:
[1] = system: UCI101 ovarian cancer cells; experiment: Alamar Blue cell growth inhibition, UCI101; assay type: cell-based; conditions: UCI101, 48 hours
Procedure, shortened: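 UCI101 cells at 50% confluence treated 48 h in triplicate with compound (0–10 μM series) or 0.1% DMSO vehicle as 100% control. Alamar Blue added at 1/10 volume for 2 h; absorbance read at 570 and 600 nm, percent growth inhibition from the manufacturer's formula.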

[2] = system: human umbilical vein endothelial cells (HUVECs); experiment: HUVEC flow cytometry and tubulin staining; assay type: cell-based; conditions: 30 nM, 16 hours
Description: (a) Flow cytometry analysis. HUVECs were treated with 30 nM of stilbene 4a for 16 hours followed by staining with PI and subjected to flow cytometry analysis. A large subG0/1 population, representing apoptotic cells, appeared along with reverse of the G1/G2 ratio. (b) Immunofluorescent staining of the HUVECs with antibody against tubulin. Nuclei were counter-stained with DAPI. Stilbene 4a disrupted microtubules at a concentration of 30 nM or higher. Stilbene 4c disrupted microtubules at 100 nM.
In order to establish that stilbenes suppress tumor perfusion by damaging tumor endothelial cells, we first incubated human vascular endothelial cells (HUVECs) with various concentrations of stilbenes in vitro. After 24 hours of incubation, cells were processed for flow cytometry analysis with propidium iodide staining. Cells were also fixed with 2% paraformaldehyde and stained with anti-tubulin antibody to examine tubulin disruption and with DAPI to analyze nuclear fragmentation.

[3] = system: Hep3B hepatocellular carcinoma cells (xenograft); experiment: DCE-MRI tumor vascular perfusion, Hep3B xenograft; assay type: in vivo, mice; conditions: 50 mg/kg intraperitoneally
Description: Mice with established tumor xenografts were used for this study. […] Tumor and kidney, as the representative normal organ, were marked by arrowheads. […] Mice were then left overnight to wash out gadolinium and treated with stilbene 4a at 50 mg/kg intraperitoneally. 4 hours after stilbene injection, mice were imaged with the same protocol. […] Only a small amount of residual gadolinium was still in the tissues.
In order to establish that stilbene suppresses tumor perfusion by damaging tumor endothelial cells, we first incubated human vascular endothelial cells with various concentrations of stilbenes in vitro. After 24 hours of incubation, cells were then fixed with 2% paraformaldehyde and stained with anti-tubulin antibody to examine the tubulin disruption and with DAPI to analyze nuclear fragmentation. Dynamic-contrast enhanced magnetic resonance imaging (MRI) scanning was used to investigate tumor perfusion in vivo. Immunodeficient nude mice were first injected with Hep3B hepatocellular carcinoma cells subcutaneously. […] A region of interest (ROI) was chosen from the scan and the MRI signal in the ROI was plotted against time and the initial steepest slope of the curve was calculated to represent the maximal perfusion of the ROI. […] The perfusion rate of the muscle region was normalized and set at 100% and the rate of perfusion in tumor was calculated versus the muscle. […]

[4] = acute toxicity in dose escalating study; assay type: in vivo, mice; conditions: 100 mg/kg intraperitoneally
Description: Acute toxicity in dose escalating study: We investigated the efficacy of stilbene 4a in vivo using mouse xenograft model. First we determined the maximal tolerated dose of stilbene 4a since it has a higher potency in vitro. […] Subsequently mice fully recovered 30 min after injection.

Structure (SMILES): COc1cc(/C=C\c2ccc(OC)c(N)c2)cc(OC)c1 [4a, (Z)-5-[2-(3,5-Dimethoxy-phenyl)-vinyl]-2-methoxy-phenylamine]
- relative potency / activity [1]: about equal in their potency
- apoptosis of HUVECs (flow cytometry) [2]: induced a significant apoptotic population of subG0/1 cells
- normal vascular perfusion [3]: without compromising normal vascular perfusion
- tumor vascular perfusion (gadolinium enhancement) ([3]; 4 hours after injection): significantly less gadolinium enhancement
- acute toxicity at 100 mg/kg intraperitoneally [4]: no sign of weakness was observed
